Data from US9809623B2, “α4β7 peptide monomer and dimer antagonists” (Protagonist Therapeutics, Inc., priority 2014, dated 2017).
Numbered stars: 1 amine (or outer) side, 2 acyl side, 3 side chain; on linkers, the order of the positions; unused ones are H or OH. Bridge positions count the residues as written; N and C are the ends. Square brackets hold non-standard residues; d marks the D form. Peptide text beside a SMILES is read from it. I, II: the chains in the order shown. Phe(3,4-Cl2) = N[C@@H](Cc1ccc(Cl)c(Cl)c1)C(=O)O; Phe(2,4-Cl2) = N[C@@H](Cc1ccc(Cl)cc1Cl)C(=O)O; 1Nal = N[C@@H](Cc1cccc2ccccc12)C(=O)O; 2Nal = N[C@@H](Cc1ccc2ccccc2c1)C(=O)O; d1Nal = N[C@H](Cc1cccc2ccccc12)C(=O)O; d2Nal = N[C@H](Cc1ccc2ccccc2c1)C(=O)O; Diglycolyl = O=C(COCC(=O)[*:2])[*:1]; NMeR = CN[C@@H](CCCNC(=N)N)C(=O)O; hPhe = N[C@@H](CCc1ccccc1)C(=O)O; Tic = O=C(O)[C@@H]1Cc2ccccc2CN1; Pen = CC(C)(S)[C@H](N)C(=O)O; dNMeK = CN[C@H](CCCCN)C(=O)O

Tests used:
rh integrin α4β7 = molecular target: T1, rh integrin α4β7 (Homo sapiens, UniProt P13612+P26010); assay: α4β7-MAdCAM Competition ELISA; type: binding; details: Table 3-B, Potency (α4β7); range classes; read-out: α4β7 ELISA IC50
T1 construct: purchased R&D Systems 5397-A30
T1 sequence (P13612 34-977 limits assumed): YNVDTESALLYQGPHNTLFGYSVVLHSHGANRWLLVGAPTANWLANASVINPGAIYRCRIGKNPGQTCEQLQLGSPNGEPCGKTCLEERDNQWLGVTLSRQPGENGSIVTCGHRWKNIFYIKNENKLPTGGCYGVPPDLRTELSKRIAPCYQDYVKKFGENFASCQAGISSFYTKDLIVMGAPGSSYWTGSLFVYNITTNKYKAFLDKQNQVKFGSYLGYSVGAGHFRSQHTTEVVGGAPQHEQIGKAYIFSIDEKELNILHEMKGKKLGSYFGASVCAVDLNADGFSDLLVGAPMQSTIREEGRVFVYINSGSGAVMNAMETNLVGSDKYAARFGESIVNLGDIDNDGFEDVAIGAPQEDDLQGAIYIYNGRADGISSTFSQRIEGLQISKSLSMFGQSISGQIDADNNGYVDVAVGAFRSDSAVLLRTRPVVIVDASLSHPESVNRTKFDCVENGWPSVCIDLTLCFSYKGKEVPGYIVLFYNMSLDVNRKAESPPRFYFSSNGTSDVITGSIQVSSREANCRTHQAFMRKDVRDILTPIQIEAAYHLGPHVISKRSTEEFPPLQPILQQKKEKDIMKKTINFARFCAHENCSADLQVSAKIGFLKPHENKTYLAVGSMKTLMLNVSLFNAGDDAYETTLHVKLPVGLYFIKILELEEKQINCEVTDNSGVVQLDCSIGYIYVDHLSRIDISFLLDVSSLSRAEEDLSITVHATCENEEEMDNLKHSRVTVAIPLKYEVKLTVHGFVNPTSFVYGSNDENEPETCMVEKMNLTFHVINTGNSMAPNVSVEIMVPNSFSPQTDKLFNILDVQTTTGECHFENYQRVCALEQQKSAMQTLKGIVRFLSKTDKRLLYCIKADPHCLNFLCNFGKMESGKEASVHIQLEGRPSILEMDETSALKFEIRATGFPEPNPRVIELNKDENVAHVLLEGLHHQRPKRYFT
T1 sequence (P26010 20-723 limits assumed): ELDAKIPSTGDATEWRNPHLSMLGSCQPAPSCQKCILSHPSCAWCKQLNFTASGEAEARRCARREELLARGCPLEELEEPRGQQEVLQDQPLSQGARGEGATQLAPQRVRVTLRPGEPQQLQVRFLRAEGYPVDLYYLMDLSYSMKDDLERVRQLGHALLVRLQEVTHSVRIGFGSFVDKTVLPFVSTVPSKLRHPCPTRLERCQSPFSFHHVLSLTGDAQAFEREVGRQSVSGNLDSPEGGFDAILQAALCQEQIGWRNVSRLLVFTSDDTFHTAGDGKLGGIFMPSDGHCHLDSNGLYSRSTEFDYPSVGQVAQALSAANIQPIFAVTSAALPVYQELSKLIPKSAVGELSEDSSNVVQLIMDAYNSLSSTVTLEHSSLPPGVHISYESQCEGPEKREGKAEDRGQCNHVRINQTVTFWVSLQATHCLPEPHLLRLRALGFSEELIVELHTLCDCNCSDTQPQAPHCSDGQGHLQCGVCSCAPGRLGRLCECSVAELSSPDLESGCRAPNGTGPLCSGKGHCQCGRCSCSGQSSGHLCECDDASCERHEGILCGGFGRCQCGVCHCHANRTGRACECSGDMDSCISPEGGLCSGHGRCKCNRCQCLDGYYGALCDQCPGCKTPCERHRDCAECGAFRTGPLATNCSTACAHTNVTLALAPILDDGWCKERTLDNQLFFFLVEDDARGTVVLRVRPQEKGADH
Description: A nickel coated plate (Pierce #15442) was coated with rh integrin α4β7 (R&D Systems #5397-A30) at 800 ng/well and incubated at room temperature with shaking for 1 hr. The solution was then removed by shaking and blocked with assay buffer (50 mM Tris-HCl pH7.6, 150 mM NaCl, 1 mM MnCl2 or MgCl2, 0.05% Tween-20 and 0.5% BSA) at 250 ul/well. The plate was then incubated at room temperature for 1 hr. Each well was washed 3 times with wash buffer (50 mM Tris-HCl pH7.6, 100 mM NaCl, 1 mM MnCl2 or MgCl2, 0.05% Tween-20). To each well was added 25 ul of a serial dilution (3-fold dilutions in assay buffer) of peptide starting at 20 μM. 25 ul of recombinant human MAdCAM-1 (R&D Systems #6056-MC) was then added to each well at a fixed concentration 20 nM. The final starting peptide concentration was 10 μM, and the final MAdCAM-1 concentration was 10 nM. The plates were then incubated at room temperature for 1 hr to reach binding equilibrium. The wells were then washed three times with wash buffer. 50 ul of mouse anti-human IgG1-HRP (Invitrogen # A10648) diluted in 1:2000 in assay buffer was then added to each well. The wells were incubated at room temperature for 45 min with shaking. The wells were then washed 3 times with wash buffer. 100 ul of 3,3′,5,5′-Tetramethylbenzidine (TMB) were then added to each well and closely observe during development time. The reaction was stopped with 2N H2SO4 and absorbance was read at 450 nm.
TMB is a chromogenic substrate suitable for use in ELISA procedures, which utilize horseradish peroxidase conjugates. This substrate produces a soluble end product that is blue in color and can be read spectrophotometrically at 370 or 655 nm. The reaction maybe stopped with 2 M H2S04, resulting in a yellow solution that is read at 450 nm. Each tablet contains 1 mg of TMB substrate. To prepare TMB Substrate Solution, dissolve one 3,3′,5,5′-tetramethylbenzidine tablet in 1 ml of DMSO and add to 9 ml of 0.05 M Phosphate-Citrate Buffer, pH 5.0. Add 2 μl of fresh 30% hydrogen peroxide (Product No. H 1009) per 10 ml of substrate buffer solution, immediately prior to use.

α4β7 = α4β7 (Homo sapiens, UniProt P13612+P26010); assay: α4β7-MAdCAM Cell Adhesion Assay (RPMI 8866 human cells); type: cell-based; parameters: host or cells: RPMI 8866 human B lymphoblastoid cells; details: Table 3-B, Potency (α4β7); range classes; read-out: α4β7 cell (Hu) IC50
Chain of α4β7 (P13612 34-1032): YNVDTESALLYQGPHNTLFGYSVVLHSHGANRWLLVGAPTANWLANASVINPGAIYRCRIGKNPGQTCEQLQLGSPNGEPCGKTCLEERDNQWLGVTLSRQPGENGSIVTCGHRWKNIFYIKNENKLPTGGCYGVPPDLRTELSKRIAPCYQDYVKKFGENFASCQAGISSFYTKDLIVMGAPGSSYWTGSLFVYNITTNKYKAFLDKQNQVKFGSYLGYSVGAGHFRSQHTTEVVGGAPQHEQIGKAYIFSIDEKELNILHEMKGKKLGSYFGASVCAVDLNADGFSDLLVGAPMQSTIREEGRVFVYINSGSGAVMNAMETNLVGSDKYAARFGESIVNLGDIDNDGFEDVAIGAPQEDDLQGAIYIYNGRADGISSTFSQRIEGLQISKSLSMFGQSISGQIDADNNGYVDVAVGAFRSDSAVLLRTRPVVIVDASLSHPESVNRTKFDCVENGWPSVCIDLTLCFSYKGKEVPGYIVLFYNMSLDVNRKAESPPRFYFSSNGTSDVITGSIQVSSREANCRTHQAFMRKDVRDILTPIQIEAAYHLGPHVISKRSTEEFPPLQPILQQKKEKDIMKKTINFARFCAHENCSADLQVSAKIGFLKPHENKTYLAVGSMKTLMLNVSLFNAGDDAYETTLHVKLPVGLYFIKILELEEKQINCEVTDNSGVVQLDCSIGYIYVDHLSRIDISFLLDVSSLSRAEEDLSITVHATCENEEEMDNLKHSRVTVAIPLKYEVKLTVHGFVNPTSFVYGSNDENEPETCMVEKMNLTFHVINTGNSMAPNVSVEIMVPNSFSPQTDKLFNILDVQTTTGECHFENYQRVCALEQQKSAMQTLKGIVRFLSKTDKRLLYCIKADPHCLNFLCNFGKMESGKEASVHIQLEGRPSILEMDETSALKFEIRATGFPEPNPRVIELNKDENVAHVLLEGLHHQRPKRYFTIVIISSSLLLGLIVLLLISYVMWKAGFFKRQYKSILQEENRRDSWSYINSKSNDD
Chain of α4β7 (P26010 20-798): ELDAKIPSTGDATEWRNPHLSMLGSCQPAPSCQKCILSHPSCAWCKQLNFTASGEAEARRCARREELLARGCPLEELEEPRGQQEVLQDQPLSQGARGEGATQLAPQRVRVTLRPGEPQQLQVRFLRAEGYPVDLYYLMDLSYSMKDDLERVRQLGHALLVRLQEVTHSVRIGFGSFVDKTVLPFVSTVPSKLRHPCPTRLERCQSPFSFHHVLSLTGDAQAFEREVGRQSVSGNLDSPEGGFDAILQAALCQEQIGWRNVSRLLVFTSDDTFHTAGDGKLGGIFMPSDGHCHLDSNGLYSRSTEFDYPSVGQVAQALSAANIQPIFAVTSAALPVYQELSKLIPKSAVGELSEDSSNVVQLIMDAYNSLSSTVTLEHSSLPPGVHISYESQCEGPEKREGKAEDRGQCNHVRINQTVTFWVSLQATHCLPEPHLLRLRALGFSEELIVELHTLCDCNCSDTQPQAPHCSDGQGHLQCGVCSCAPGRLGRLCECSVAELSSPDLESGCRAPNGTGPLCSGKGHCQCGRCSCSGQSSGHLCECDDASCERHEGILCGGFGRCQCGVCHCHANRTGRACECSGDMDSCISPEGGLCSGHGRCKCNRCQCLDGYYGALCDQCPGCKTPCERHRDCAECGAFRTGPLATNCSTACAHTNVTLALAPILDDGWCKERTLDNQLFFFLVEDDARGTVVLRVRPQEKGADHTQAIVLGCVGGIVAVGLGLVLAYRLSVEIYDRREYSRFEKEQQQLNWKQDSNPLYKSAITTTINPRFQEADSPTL
Outline: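 Washed RPMI 8866 cells (200,000/well) in DMEM with 0.1% BSA, 10 mM HEPES pH 7, 1 mM MnCl2 adhered to rh MAdCAM-1/Fc-coated wells with serially diluted peptides, 30-45 min at 37 °C. After three washes, bound cells quantified by MTT, A570, cell-free background subtracted for dose response.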

| Structure (SMILES) | IC50 (rh integrin α4β7) [µM] | IC50 (α4β7) [µM] |
| --- | --- | --- |
| CC(=O)N[C@@H]1C(=O)N(C)[C@@H](CCCNC(=N)N)C(=O)N[C@@H](CO)C(=O)N[C@@H](CC(=O)O)C(=O)N[C@@H]([C@@H](C)O)C(=O)N[C@@H](CC(C)C)C(=O)N[C@H](C(=O)N2Cc3ccccc3C[C@H]2C(=O)N[C@H](CCC(=O)O)C(=O)N[C@H](CCCCN)C(N)=O)CSSC1(C)C [compound 89] (Ac-[Pen][NMeR]SDTLC[Tic][dE][dK]-NH2; disulfide 1-7) | 0.025 to 0.05 | – |
| CC(=O)N[C@@H]1C(=O)N(C)[C@@H](CCCNC(=N)N)C(=O)N[C@@H](CO)C(=O)N[C@@H](CC(=O)O)C(=O)N[C@@H]([C@@H](C)O)C(=O)N[C@@H](CC(C)C)C(=O)N[C@H](C(=O)N[C@@H](Cc2cccc3ccccc23)C(=O)N[C@H](CCC(=O)O)C(=O)N[C@H](CCCCN)C(N)=O)C(C)(C)SSC1(C)C [compound 8] (Ac-[Pen][NMeR]SDTL[Pen][1Nal][dE][dK]-NH2; disulfide 1-7) | 0.025 to 0.05 | – |
| CC(=O)N[C@@H]1C(=O)N(C)[C@@H](CCCNC(=N)N)C(=O)N[C@@H](CO)C(=O)N[C@@H](CC(=O)O)C(=O)N[C@@H]([C@@H](C)O)C(=O)N[C@@H](CC(C)C)C(=O)N[C@H](C(=O)N[C@@H](Cc2ccc3ccccc3c2)C(=O)N[C@H](CCC(=O)O)C(=O)N[C@H](CCCCN)C(N)=O)C(C)(C)SSC1(C)C [compound 9] (Ac-[Pen][NMeR]SDTL[Pen][2Nal][dE][dK]-NH2; disulfide 1-7) | 0.01 to 0.025 | 0.1 to 0.5 |
| CC(=O)N[C@@H]1C(=O)N(C)[C@@H](CCCNC(=N)N)C(=O)N[C@@H](CO)C(=O)N[C@@H](CC(=O)O)C(=O)N[C@@H]([C@@H](C)O)C(=O)N[C@@H](CC(C)C)C(=O)N[C@H](C(=O)N[C@@H](Cc2ccc3ccccc3c2)C(=O)N[C@@H](CCC(=O)O)C(=O)N(C)[C@H](CCCCN)C(N)=O)C(C)(C)SSC1(C)C [compound 15] (Ac-[Pen][NMeR]SDTL[Pen][2Nal]E[dNMeK]-NH2; disulfide 1-7) | < 0.01 | – |
| CC(=O)N[C@@H]1C(=O)N(C)[C@@H](CCCNC(=N)N)C(=O)N[C@@H](CO)C(=O)N[C@@H](CC(=O)O)C(=O)N[C@@H]([C@@H](C)O)C(=O)N[C@@H](CC(C)C)C(=O)N[C@H](C(=O)N[C@@H](CCc2ccccc2)C(=O)N[C@H](CCC(=O)O)C(=O)N[C@H](CCCCN)C(N)=O)C(C)(C)SSC1(C)C [compound 14] (Ac-[Pen][NMeR]SDTL[Pen][hPhe][dE][dK]-NH2; disulfide 1-7) | 0.025 to 0.05 | – |
| CC(=O)N[C@@H]1C(=O)N(C)[C@@H](CCCNC(=N)N)C(=O)N[C@@H](CO)C(=O)N[C@@H](CC(=O)O)C(=O)N[C@@H]([C@@H](C)O)C(=O)N[C@@H](CC(C)C)C(=O)N[C@H](C(=O)N[C@@H](Cc2ccc3ccccc3c2)C(=O)N[C@H](CCCCN)C(N)=O)C(C)(C)SSC1(C)C [compound 88] (Ac-[Pen][NMeR]SDTL[Pen][2Nal][dK]-NH2; disulfide 1-7) | 0.01 to 0.025 | – |
| CC(=O)N[C@@H]1C(=O)N(C)[C@@H](CCCNC(=N)N)C(=O)N[C@@H](CO)C(=O)N[C@@H](CC(=O)O)C(=O)N[C@@H]([C@@H](C)O)C(=O)N[C@@H](CC(C)C)C(=O)N[C@H](C(=O)N[C@@H](Cc2ccc3ccccc3c2)C(=O)N[C@H](CCC(=O)O)C(=O)N(C)[C@H](CCCCN)C(N)=O)C(C)(C)SSC1(C)C [compound 13] (Ac-[Pen][NMeR]SDTL[Pen][2Nal][dE][dNMeK]-NH2; disulfide 1-7) | 0.01 to 0.025 | 0.1 to 0.5 |
| CC(=O)N[C@@H]1C(=O)N(C)[C@@H](CCCNC(=N)N)C(=O)N[C@@H](CO)C(=O)N[C@@H](CC(=O)O)C(=O)N[C@@H]([C@@H](C)O)C(=O)N[C@@H](CC(C)C)C(=O)N[C@H](C(=O)N[C@H](Cc2ccc3ccccc3c2)C(=O)N[C@@H](CCC(=O)O)C(=O)N[C@H](CCCCN)C(N)=O)C(C)(C)SSC1(C)C [compound 11] (Ac-[Pen][NMeR]SDTL[Pen][d2Nal]E[dK]-NH2; disulfide 1-7) | 0.025 to 0.05 | – |
| CC(=O)N[C@@H]1C(=O)N(C)[C@@H](CCCNC(=N)N)C(=O)N[C@@H](CO)C(=O)N[C@@H](CC(=O)O)C(=O)N[C@@H]([C@@H](C)O)C(=O)N[C@@H](CC(C)C)C(=O)N[C@H](C(=O)N[C@@H](Cc2ccc(Cl)cc2Cl)C(=O)N[C@@H](CCC(=O)O)C(=O)N[C@H](CCCCN)C(N)=O)C(C)(C)SSC1(C)C [compound 16] (Ac-[Pen][NMeR]SDTL[Pen][Phe(2,4-Cl2)]E[dK]-NH2; disulfide 1-7) | 0.01 to 0.025 | – |
| CC(=O)N[C@@H]1C(=O)N(C)[C@@H](CCCNC(=N)N)C(=O)N[C@@H](CO)C(=O)N[C@@H](CC(=O)O)C(=O)N[C@@H]([C@@H](C)O)C(=O)N[C@@H](CC(C)C)C(=O)N[C@H](C(=O)N[C@@H](CCc2ccccc2)C(=O)N[C@H](CCC(=O)O)C(=O)N[C@H](CCCCNC(=O)COCC(=O)NCCCC[C@@H](NC(=O)[C@@H](CCC(=O)O)NC(=O)[C@H](CCc2ccccc2)NC(=O)[C@H]2NC(=O)[C@H](CC(C)C)NC(=O)[C@H]([C@@H](C)O)NC(=O)[C@H](CC(=O)O)NC(=O)[C@H](CO)NC(=O)[C@H](CCCNC(=N)N)N(C)C(=O)[C@@H](NC(C)=O)C(C)(C)SSC2(C)C)C(N)=O)C(N)=O)C(C)(C)SSC1(C)C [compound 40] (I: Ac-[Pen][NMeR]SDTL[Pen][hPhe][dE][dK]-NH2 / II: Ac-[Pen][NMeR]SDTL[Pen][hPhe][dE][dK]-NH2; disulfide I:1-I:7, II:1-II:7; linker I:10-II:10 via Diglycolyl) | < 0.01 | 0.1 to 0.5 |
| COC(=O)C[C@@H]1NC(=O)[C@H](CO)NC(=O)[C@H](CCCNC(=N)N)N(C)C(=O)[C@@H](NC(C)=O)C(C)(C)SSC(C)(C)[C@@H](C(=O)N[C@@H](Cc2c[nH]c3ccccc23)C(=O)N[C@@H](CCC(=O)O)C(=O)N[C@H](CCCCNC(=O)COCC(=O)NCCCC[C@@H](NC(=O)[C@H](CCC(=O)O)NC(=O)[C@H](Cc2c[nH]c3ccccc23)NC(=O)[C@H]2NC(=O)[C@H](CC(C)C)NC(=O)[C@H]([C@@H](C)O)NC(=O)[C@H](CC(=O)OC)NC(=O)[C@H](CO)NC(=O)[C@H](CCCNC(=N)N)N(C)C(=O)[C@@H](NC(C)=O)C(C)(C)SSC2(C)C)C(N)=O)C(N)=O)NC(=O)[C@H](CC(C)C)NC(=O)[C@H]([C@@H](C)O)NC1=O [compound 73] (I: Ac-[Pen][NMeR]SD(OMe)TL[Pen]WE[dK]-NH2 / II: Ac-[Pen][NMeR]SD(OMe)TL[Pen]WE[dK]-NH2; disulfide I:1-I:7, II:1-II:7; linker I:10-II:10 via Diglycolyl) | < 0.01 | < 0.01 |
| CC(=O)N[C@@H]1C(=O)N(C)[C@@H](CCCNC(=N)N)C(=O)N[C@@H](CO)C(=O)N[C@@H](CC(=O)O)C(=O)N[C@@H]([C@@H](C)O)C(=O)N[C@@H](CC(C)C)C(=O)N[C@H](C(=O)N[C@@H](Cc2cccc3ccccc23)C(=O)N[C@H](CCC(=O)O)C(=O)N(C)[C@H](CCCCN)C(N)=O)C(C)(C)SSC1(C)C [compound 12] (Ac-[Pen][NMeR]SDTL[Pen][1Nal][dE][dNMeK]-NH2; disulfide 1-7) | 0.025 to 0.05 | – |
| CC(=O)N[C@@H]1C(=O)N(C)[C@@H](CCCNC(=N)N)C(=O)N[C@@H](CO)C(=O)N[C@@H](CC(=O)O)C(=O)N[C@@H]([C@@H](C)O)C(=O)N[C@@H](CC(C)C)C(=O)N[C@H](C(=O)N[C@@H](CCc2ccccc2)C(=O)N[C@@H](CCC(=O)O)C(=O)N[C@H](CCCCN)C(N)=O)C(C)(C)SSC1(C)C [compound 19] (Ac-[Pen][NMeR]SDTL[Pen][hPhe]E[dK]-NH2; disulfide 1-7) | 0.01 to 0.025 | – |
| CC(=O)N[C@@H]1C(=O)N(C)[C@@H](CCCNC(=N)N)C(=O)N[C@@H](CO)C(=O)N[C@@H](CC(=O)O)C(=O)N[C@@H]([C@@H](C)O)C(=O)N[C@@H](CC(C)C)C(=O)N[C@H](C(=O)N[C@H](Cc2cccc3ccccc23)C(=O)N[C@@H](CCC(=O)O)C(=O)N[C@H](CCCCN)C(N)=O)C(C)(C)SSC1(C)C [compound 10] (Ac-[Pen][NMeR]SDTL[Pen][d1Nal]E[dK]-NH2; disulfide 1-7) | 0.01 to 0.025 | – |
| CC(=O)N[C@@H]1C(=O)N(C)[C@@H](CCCNC(=N)N)C(=O)N[C@@H](CO)C(=O)N[C@@H](CC(=O)O)C(=O)N[C@@H]([C@@H](C)O)C(=O)N[C@@H](CC(C)C)C(=O)N[C@H](C(=O)N[C@@H](Cc2ccc(Cl)c(Cl)c2)C(=O)N[C@@H](CCC(=O)O)C(=O)N[C@H](CCCCN)C(N)=O)C(C)(C)SSC1(C)C [compound 17] (Ac-[Pen][NMeR]SDTL[Pen][Phe(3,4-Cl2)]E[dK]-NH2; disulfide 1-7) | 0.01 to 0.025 | – |
